ChEMBL document CHEMBL1201862, “PubChem BioAssay data set” (2004)
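Assay format: 96-well plates, 48-hour exposure. GI50 = concentration required for 50% inhibition of growth.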 Active and inactive are the calls of the source. No stated cut-off is given here; in the data, active = GI50 up to about 1.1 µM and inactive = higher.

Legend:
Experiment in all cases: NCI-60 cell line screen, 48 h
[1] = tested on: 786-0
[2] = tested on: A498
[3] = tested on: A549
[4] = tested on: ACHN
[5] = tested on: CAKI-1
[6] = tested on: CCRF-CEM
[7] = tested on: COLO 205
[8] = tested on: DMS-273
[9] = tested on: EKVX
[10] = tested on: HCT-116
[11] = tested on: HCT-15
[12] = tested on: HOP-18
[13] = tested on: HOP-62
[14] = tested on: HOP-92
[15] = tested on: HT-29
[16] = tested on: IGROV-1
[17] = tested on: K562
[18] = tested on: KM-20L2
[19] = tested on: KM12
[20] = tested on: LOX IMVI
[21] = tested on: M19-MEL
[22] = tested on: Malme-3M
[23] = tested on: NCI-H23
[24] = tested on: NCI-H460
[25] = tested on: OVCAR-3
[26] = tested on: OVCAR-4
[27] = tested on: OVCAR-5
[28] = tested on: OVCAR-8
[29] = tested on: RPMI-8226
[30] = tested on: RXF 393
[31] = tested on: SF-268
[32] = tested on: SF-295
[33] = tested on: SF-539
[34] = tested on: SK-MEL-28
[35] = tested on: SK-MEL-2
[36] = tested on: SK-MEL-5
[37] = tested on: SN12C
[38] = tested on: SNB-19
[39] = tested on: SNB-75
[40] = tested on: SNB-78
[41] = tested on: SR
[42] = tested on: SW-620
[43] = tested on: TK-10
[44] = tested on: U-251
[45] = tested on: UACC-257
[46] = tested on: UACC-62
[47] = tested on: XF498
[48] = tested on: DLD-1
[49] = tested on: DMS-114
[50] = tested on: HCC 2998
[51] = tested on: HL-60
[52] = tested on: LXFL 529
[53] = tested on: M14
[54] = tested on: MOLT-4
[55] = tested on: NCI-H226
[56] = tested on: NCI-H522
[57] = tested on: SK-OV-3
[58] = tested on: UO-31

C=CC[C@H]1C[C@@]2(C)OC[C@H](C(C)C)N2C1=O
GI50 [1]: > 100 µM (inactive)
GI50 [2]: > 100 µM (inactive)
GI50 [3]: > 100 µM (inactive)
GI50 [4]: > 100 µM (inactive)
GI50 [5]: > 100 µM (inactive)
GI50 [6]: > 100 µM (inactive)
GI50 [7]: > 100 µM (inactive)
GI50 [8]: > 100 µM (inactive)
GI50 [9]: > 100 µM (inactive)
GI50 [10]: > 100 µM (inactive)
GI50 [11]: > 100 µM
GI50 [12]: > 100 µM (inactive)
GI50 [13]: > 100 µM (inactive)
GI50 [14]: > 100 µM (inactive)
GI50 [15]: > 100 µM (inactive)
GI50 [16]: > 100 µM (inactive)
GI50 [17]: > 100 µM (inactive)
GI50 [18]: > 100 µM (inactive)
GI50 [19]: > 100 µM (inactive)
GI50 [20]: > 100 µM (inactive)
GI50 [21]: > 100 µM (inactive)
GI50 [22]: > 100 µM (inactive)
GI50 [23]: > 100 µM (inactive)
GI50 [24]: > 100 µM (inactive)
GI50 [25]: > 100 µM (inactive)
GI50 [26]: > 100 µM (inactive)
GI50 [27]: > 100 µM (inactive)
GI50 [28]: > 100 µM (inactive)
GI50 [29]: > 100 µM (inactive)
GI50 [30]: > 100 µM (inactive)
GI50 [31]: > 100 µM (inactive)
GI50 [32]: > 100 µM (inactive)
GI50 [33]: > 100 µM (inactive)
GI50 [34]: > 100 µM (inactive)
GI50 [35]: > 100 µM (inactive)
GI50 [36]: > 100 µM (inactive)
GI50 [37]: > 100 µM (inactive)
GI50 [38]: > 100 µM (inactive)
GI50 [39]: > 100 µM (inactive)
GI50 [40]: > 100 µM (inactive)
GI50 [41]: > 100 µM (inactive)
GI50 [42]: > 100 µM (inactive)
GI50 [43]: > 100 µM (inactive)
GI50 [44]: > 100 µM (inactive)
GI50 [45]: > 100 µM (inactive)
GI50 [46]: > 100 µM (inactive)
GI50 [47]: > 100 µM (inactive)

O=C1CCC(=O)c2ccccc2N1
GI50 [1]: > 100 µM (inactive)
GI50 [2]: > 100 µM (inactive)
GI50 [3]: > 100 µM (inactive)
GI50 [4]: > 100 µM (inactive)
GI50 [5]: > 100 µM (inactive)
GI50 [6]: > 100 µM (inactive)
GI50 [7]: > 100 µM (inactive)
GI50 [48]: > 100 µM (inactive)
GI50 [49]: > 100 µM (inactive)
GI50 [8]: > 100 µM (inactive)
GI50 [9]: > 100 µM (inactive)
GI50 [50]: > 100 µM (inactive)
GI50 [10]: > 100 µM (inactive)
GI50 [11]: > 100 µM
GI50 [51]: > 100 µM (inactive)
GI50 [12]: > 100 µM (inactive)
GI50 [13]: > 100 µM (inactive)
GI50 [14]: > 100 µM (inactive)
GI50 [15]: > 100 µM (inactive)
GI50 [16]: > 100 µM (inactive)
GI50 [17]: > 100 µM (inactive)
GI50 [18]: > 100 µM (inactive)
GI50 [19]: > 100 µM (inactive)
GI50 [20]: > 100 µM (inactive)
GI50 [52]: > 100 µM (inactive)
GI50 [53]: > 100 µM (inactive)
GI50 [21]: > 100 µM (inactive)
GI50 [54]: > 100 µM (inactive)
GI50 [22]: > 100 µM (inactive)
GI50 [55]: > 100 µM (inactive)
GI50 [23]: > 100 µM (inactive)
GI50 [24]: > 100 µM (inactive)
GI50 [56]: > 100 µM (inactive)
GI50 [25]: > 100 µM (inactive)
GI50 [26]: > 100 µM (inactive)
GI50 [27]: > 100 µM (inactive)
GI50 [28]: > 100 µM (inactive)
GI50 [29]: > 100 µM (inactive)
GI50 [30]: > 100 µM (inactive)
GI50 [31]: > 100 µM (inactive)
GI50 [32]: > 100 µM (inactive)
GI50 [33]: > 100 µM (inactive)
GI50 [34]: > 100 µM (inactive)
GI50 [35]: > 100 µM (inactive)
GI50 [36]: > 100 µM (inactive)
GI50 [57]: > 100 µM (inactive)
GI50 [37]: > 100 µM (inactive)
GI50 [38]: > 100 µM (inactive)
GI50 [39]: > 100 µM (inactive)
GI50 [42]: > 100 µM (inactive)
GI50 [43]: > 100 µM (inactive)
GI50 [44]: > 100 µM (inactive)
GI50 [45]: > 100 µM (inactive)
GI50 [58]: > 100 µM (inactive)
GI50 [47]: > 100 µM (inactive)
